This series deals with CCRIS mutagenicity, Ames/micronucleus/aberration tests. The series can be described thus: CCRIS mutagenicity studies.

Molecules are shown by their SMILES. Activity calls are given as the source filed them. The rule behind the calls is not given here.

As for `FC(F)C(F)(F)F`, the mutagenic call (Test System: AMES SALMONELLA TYPHIMURIUM, Strain/Indicator: TA98, Metabolic Activation: NONE, Method: STANDARD PLATE) is “inactive; negative”; the mutagenic call (Test System: AMES SALMONELLA TYPHIMURIUM, Strain/Indicator: TA98, Metabolic Activation: RAT, LIVER, S-9, AROCLOR 1254, Method: STANDARD PLATE) was “inactive; negative”; the mutagenic call (Test System: AMES SALMONELLA TYPHIMURIUM, Strain/Indicator: TA100, Metabolic Activation: NONE, Method: STANDARD PLATE) was “inactive; negative”; the mutagenic call (Test System: AMES SALMONELLA TYPHIMURIUM, Strain/Indicator: TA100, Metabolic Activation: RAT, LIVER, S-9, AROCLOR 1254, Method: STANDARD PLATE) was “inactive; negative”; the mutagenic call (Test System: AMES SALMONELLA TYPHIMURIUM, Strain/Indicator: TA1535, Metabolic Activation: NONE, Method: STANDARD PLATE) is “inactive; negative”; the mutagenic call (Test System: AMES SALMONELLA TYPHIMURIUM, Strain/Indicator: TA1535, Metabolic Activation: RAT, LIVER, S-9, AROCLOR 1254, Method: STANDARD PLATE) was “inactive; negative”. For the same compound, the mutagenic call runs as follows: (Test System: AMES SALMONELLA TYPHIMURIUM, Strain/Indicator: TA1537, Metabolic Activation: NONE, Method: STANDARD PLATE) “inactive; negative”; (Test System: AMES SALMONELLA TYPHIMURIUM, Strain/Indicator: TA1537, Metabolic Activation: RAT, LIVER, S-9, AROCLOR 1254, Method: STANDARD PLATE) “inactive; negative”; (Test System: AMES SALMONELLA TYPHIMURIUM, Strain/Indicator: TA1538, Metabolic Activation: NONE, Method: STANDARD PLATE) “inactive; negative”; (Test System: AMES SALMONELLA TYPHIMURIUM, Strain/Indicator: TA1538, Metabolic Activation: RAT, LIVER, S-9, AROCLOR 1254, Method: STANDARD PLATE) “inactive; negative”; (Test System: E. COLI, Strain/Indicator: WP2 UVRA, Metabolic Activation: NONE, Method: STANDARD PLATE) “inactive; negative”; (Test System: E. COLI, Strain/Indicator: WP2 UVRA, Metabolic Activation: RAT, LIVER, S-9, AROCLOR 1254, Method: STANDARD PLATE) “inactive; negative”.

For `CNc1ccccc1`, the mutagenic call is “inactive; negative” (Test System: AMES SALMONELLA TYPHIMURIUM, Strain/Indicator: TA97, Metabolic Activation: HAMSTER, LIVER, S-9, AROCLOR 1254 (10%), Method: PREINCUBATION); “inactive; negative” (Test System: AMES SALMONELLA TYPHIMURIUM, Strain/Indicator: TA97, Metabolic Activation: HAMSTER, LIVER, S-9, AROCLOR 1254 (30%), Method: PREINCUBATION); “inactive; negative” (Test System: AMES SALMONELLA TYPHIMURIUM, Strain/Indicator: TA97, Metabolic Activation: NONE, Method: PREINCUBATION); “inactive; negative” (Test System: AMES SALMONELLA TYPHIMURIUM, Strain/Indicator: TA97, Metabolic Activation: RAT, LIVER, S-9, AROCLOR 1254 (10%), Method: PREINCUBATION); “inactive; negative” (Test System: AMES SALMONELLA TYPHIMURIUM, Strain/Indicator: TA97, Metabolic Activation: RAT, LIVER, S-9, AROCLOR 1254 (30%), Method: PREINCUBATION); “inactive; negative” (Test System: AMES SALMONELLA TYPHIMURIUM, Strain/Indicator: TA98, Metabolic Activation: HAMSTER, LIVER, S-9, AROCLOR 1254 (10%), Method: PREINCUBATION). The mutagenic call by setting is: (Test System: AMES SALMONELLA TYPHIMURIUM, Strain/Indicator: TA98, Metabolic Activation: HAMSTER, LIVER, S-9, AROCLOR 1254 (30%), Method: PREINCUBATION) “inactive; negative”; (Test System: AMES SALMONELLA TYPHIMURIUM, Strain/Indicator: TA98, Metabolic Activation: HAMSTER, LIVER, S-9, SODIUM PHENOBARBITAL AND 5,6-BENZOFLAVONE, Method: PREINCUBATION) “inactive; negative”; (Test System: AMES SALMONELLA TYPHIMURIUM, Strain/Indicator: TA98, Metabolic Activation: NONE, Method: PREINCUBATION) “inactive; negative”; (Test System: AMES SALMONELLA TYPHIMURIUM, Strain/Indicator: TA98, Metabolic Activation: RAT, LIVER, S-9, AROCLOR 1254 (10 OR 30%), Method: PREINCUBATION) “inactive; negative”; (Test System: AMES SALMONELLA TYPHIMURIUM, Strain/Indicator: TA100, Metabolic Activation: HAMSTER, LIVER, S-9, AROCLOR 1254 (10%), Method: PREINCUBATION) “inactive; negative”; (Test System: AMES SALMONELLA TYPHIMURIUM, Strain/Indicator: TA100, Metabolic Activation: HAMSTER, LIVER, S-9, AROCLOR 1254 (30%), Method: PREINCUBATION) “inactive; negative”. For the same compound, the mutagenic call is “inactive; negative” (Test System: AMES SALMONELLA TYPHIMURIUM, Strain/Indicator: TA100, Metabolic Activation: HAMSTER, LIVER, S-9, SODIUM PHENOBARBITAL AND 5,6-BENZOFLAVONE, Method: PREINCUBATION); “inactive; negative” (Test System: AMES SALMONELLA TYPHIMURIUM, Strain/Indicator: TA100, Metabolic Activation: NONE, Method: PREINCUBATION); “inactive; negative” (Test System: AMES SALMONELLA TYPHIMURIUM, Strain/Indicator: TA100, Metabolic Activation: RAT, LIVER, S-9, AROCLOR 1254 (10 OR 30%), Method: PREINCUBATION); “inactive; negative” (Test System: AMES SALMONELLA TYPHIMURIUM, Strain/Indicator: TA102, Metabolic Activation: HAMSTER, LIVER, S-9, SODIUM PHENOBARBITAL AND 5,6-BENZOFLAVONE, Method: PREINCUBATION); “inactive; negative” (Test System: AMES SALMONELLA TYPHIMURIUM, Strain/Indicator: TA102, Metabolic Activation: NONE, Method: PREINCUBATION); “inactive; negative” (Test System: AMES SALMONELLA TYPHIMURIUM, Strain/Indicator: TA104, Metabolic Activation: HAMSTER, LIVER, S-9, SODIUM PHENOBARBITAL AND 5,6-BENZOFLAVONE, Method: PREINCUBATION). In addition, the mutagenic call runs as follows: (Test System: AMES SALMONELLA TYPHIMURIUM, Strain/Indicator: TA104, Metabolic Activation: NONE, Method: PREINCUBATION) “inactive; negative”; (Test System: AMES SALMONELLA TYPHIMURIUM, Strain/Indicator: TA1535, Metabolic Activation: HAMSTER, LIVER, S-9, AROCLOR 1254 (10%), Method: PREINCUBATION) “inactive; negative”; (Test System: AMES SALMONELLA TYPHIMURIUM, Strain/Indicator: TA1535, Metabolic Activation: HAMSTER, LIVER, S-9, AROCLOR 1254 (30%), Method: PREINCUBATION) “inactive; negative”; (Test System: AMES SALMONELLA TYPHIMURIUM, Strain/Indicator: TA1535, Metabolic Activation: HAMSTER, LIVER, S-9, SODIUM PHENOBARBITAL AND 5,6-BENZOFLAVONE, Method: PREINCUBATION) “inactive; negative”; (Test System: AMES SALMONELLA TYPHIMURIUM, Strain/Indicator: TA1535, Metabolic Activation: NONE, Method: PREINCUBATION) “inactive; negative”; (Test System: AMES SALMONELLA TYPHIMURIUM, Strain/Indicator: TA1535, Metabolic Activation: RAT, LIVER, S-9, AROCLOR 1254 (10 OR 30%), Method: PREINCUBATION) “inactive; negative”. The mutagenic call is, setting by setting: (Test System: AMES SALMONELLA TYPHIMURIUM, Strain/Indicator: TA1537, Metabolic Activation: HAMSTER, LIVER, S-9, SODIUM PHENOBARBITAL AND 5,6-BENZOFLAVONE, Method: PREINCUBATION) “inactive; negative”; (Test System: AMES SALMONELLA TYPHIMURIUM, Strain/Indicator: TA1537, Metabolic Activation: NONE, Method: PREINCUBATION) “inactive; negative”; (Test System: E. COLI, Strain/Indicator: WP2UVRA/PKM101, Metabolic Activation: HAMSTER, LIVER, S-9, SODIUM PHENOBARBITAL AND 5,6-BENZOFLAVONE, Method: PREINCUBATION) “inactive; negative”; (Test System: E. COLI, Strain/Indicator: WP2UVRA/PKM101, Metabolic Activation: NONE, Method: PREINCUBATION) “inactive; negative”; (Test System: E. COLI, Strain/Indicator: WP2UVRA, Metabolic Activation: HAMSTER, LIVER, S-9, SODIUM PHENOBARBITAL AND 5,6-BENZOFLAVONE, Method: PREINCUBATION) “inactive; negative”; (Test System: E. COLI, Strain/Indicator: WP2UVRA, Metabolic Activation: NONE, Method: PREINCUBATION) “inactive; negative”. The mutagenic call (Test System: UDS RODENT HEPATOCYTES, Strain/Indicator: THY INCORP (NON-S-PHASE), Metabolic Activation: NONE, Method: AUTORADIOGRAPHY) is “inactive; negative”.

For the compound `OC1(c2ccc(Cl)cc2)c2ccccc2C2=NCCN21` (stereo not given), the mutagenic call is, setting by setting: (Test System: CHINESE HAMSTER V-79, Strain/Indicator: V-79/6-THIOGUANINE, Metabolic Activation: NONE) “active; positive”; (Test System: CHINESE HAMSTER V-79, Strain/Indicator: V-79/6-THIOGUANINE, Metabolic Activation: S-9) “active; positive”.

The values are drawn from PubChem BioAssay AID1259407 (Chemical Carcinogenesis Research Information System (CCRIS), 2018).
